In patent publication US8981094B2, “Piperidine/piperazine derivatives” (Janssen Pharmaceutica N.V., priority 2007, dated 2015):

Legend:
human DGAT1 = target: T1, human DGAT1 (Homo sapiens, UniProt O75907); experiment: Inhibition of DGAT1 activity, FlashPlate assay with DGAT1 membrane preparations and substrate micelles; format: biochemical; details: pIC50 = -logIC50, IC50 values expressed in M
T1 construct: FLAG (N); made in house; host or cells: SF9 insect cells (pFastBac baculovirus); total cell membranes
T1 sequence (O75907 1-488): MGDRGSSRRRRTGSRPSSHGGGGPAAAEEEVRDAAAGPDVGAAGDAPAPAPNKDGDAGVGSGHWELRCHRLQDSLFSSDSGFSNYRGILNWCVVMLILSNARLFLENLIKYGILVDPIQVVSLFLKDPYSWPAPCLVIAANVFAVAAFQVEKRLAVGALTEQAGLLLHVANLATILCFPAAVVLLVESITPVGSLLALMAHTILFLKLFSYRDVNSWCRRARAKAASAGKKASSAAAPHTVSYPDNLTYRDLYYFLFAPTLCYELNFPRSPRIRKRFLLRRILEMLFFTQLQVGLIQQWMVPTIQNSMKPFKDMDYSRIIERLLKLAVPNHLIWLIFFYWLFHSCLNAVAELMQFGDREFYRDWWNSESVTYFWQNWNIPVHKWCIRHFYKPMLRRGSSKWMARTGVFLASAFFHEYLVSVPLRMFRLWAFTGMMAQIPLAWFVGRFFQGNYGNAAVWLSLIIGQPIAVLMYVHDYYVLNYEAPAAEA
Summary of the method: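 FLAG-tagged human DGAT1 membranes (expressed in Sf9 cells) were incubated 120 min at 37° C. in 50 mM Tris-HCl pH 7.4 with 150 mM MgCl2, 1 mM EDTA, 0.2% BSA, 50 μM DAG micelles (PC/PS) and 8.4 μM [^3H]-oleoylCoA. The reaction was stopped with N-ethylmaleimide and read as FlashPlate radioluminescence. Responses were normalized to enzyme/no-enzyme controls to fit dose-response curves.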

SMILES	IC50 (human DGAT1)	melting point
COCCOCC(=O)Nc1ccc(N2CCN(C(=O)Nc3c(Cl)cccc3Cl)CC2)cc1 [Compound 45]	2340 nM	178.7 °C
O=C(CCC(O)c1ccccc1)Nc1ccc(N2CCN(C(=O)Cc3c(Cl)cccc3Cl)CC2)cc1 (centres unmarked) [Compound 333]	355 nM	200.57 °C
O=C(CCN1CCCCC1)Nc1ccc(N2CCN(C(=O)Nc3c(Cl)cccc3Cl)CC2)cc1 [Compound 138]	1320 nM	241.1 °C
COc1ccc(CN(C)C(=O)c2ccc(N3CCN(C(=O)Nc4c(Cl)cc(CN5CCCC5)cc4Cl)CC3)cc2)cc1 [Compound 263]	3720 nM	132.84 °C
COC(=O)c1cc(Cl)c(NC(=O)N2CCC(c3ccc(NC(=O)CCCc4ccccc4)cc3)CC2)c(Cl)c1 [Compound 324]	107 nM	204 to 205 °C
CCOC(=O)CCCC(=O)Nc1ccc(N2CCN(C(=O)Nc3c(Cl)cc(CN4CCCC4)cc3Cl)CC2)cc1 [Compound 322]	91.2 nM	208.65 °C
O=C(NCc1ccco1)c1ccc(N2CCN(C(=O)Cc3c(Cl)cccc3Cl)CC2)cc1 [Compound 258]	759 nM	238.35 °C
O=C(CCCc1ccccc1)Nc1ccc(N2CCN(C(=O)Nc3c(F)cc(Br)cc3F)CC2)cc1 [Compound 49]	120 nM	207.9 °C
CC1CCCN1CCC(=O)Nc1ccc(N2CCN(C(=O)Nc3c(Cl)cccc3Cl)CC2)cc1 (centres unmarked) [Compound 176]	6170 nM	232 to 233 °C
O=C(CCCc1ccccc1)Nc1ccc(N2CCN(C(=O)Nc3ccccc3)CC2)cc1 [Compound 339]	3090 nM	219.91 °C
O=C(CCCc1ccccc1)Nc1ccc(N2CCN(C(=O)Nc3ccccc3I)CC2)cc1 [Compound 78]	126 nM	153.3 °C
CC(C)c1ccccc1NC(=O)N1CCN(c2ccc(NC(=O)CCCc3ccccc3)cc2)CC1 [Compound 90]	589 nM	214.2 °C
O=C(CCc1ccccn1)Nc1ccc(N2CCN(C(=O)Nc3c(Cl)cccc3Cl)CC2)cc1 [Compound 9]	550 nM	187 to 188 °C
O=C(Nc1ccc(N2CCN(C(=O)Nc3c(Cl)cccc3Cl)CC2)cc1)C(O)CCc1ccccc1 (centres unmarked) [Compound 48]	148 nM	253.4 °C
CS(=O)(=O)N1CCN(CCC(=O)Nc2ccc(N3CCN(C(=O)Nc4c(Cl)cccc4Cl)CC3)cc2)CC1 [Compound 172]	603 nM	250 to 252 °C
O=C(CCCc1ccccc1)Nc1ccc(N2CCN(C(=O)Nc3c(Cl)ccc4c3CCO4)CC2)cc1 [Compound 12]	182 nM	209.8 °C

SMILES	IC50 (human DGAT1)	melting point
O=C(NCc1ccncc1)c1ccc(N2CCN(C(=O)Cc3c(Cl)cccc3Cl)CC2)cc1 [Compound 251]	191 nM	239.51 °C
COc1ccc(CNC(=O)c2ccc(N3CCN(C(=O)Nc4c(Cl)cc(CN5CCCC5)cc4Cl)CC3)cc2F)cc1 [Compound 255]	339 nM	176.5 to 178 °C
Cc1cc(Cl)c(CC(=O)N2CCN(c3ccc(C(=O)NCc4cccc(N5CCCC5)c4)cc3)CC2)c(Cl)n1 [Compound 242]	129 nM	172.73 °C
COc1ccc(CCNC(=O)c2ccc(N3CCN(C(=O)Nc4c(Cl)cc(CN5CCCC5)cc4Cl)CC3)cc2F)cc1 [Compound 246]	151 nM	235 to 237 °C
COc1ccc(CC(=O)Nc2ccc(N3CCN(C(=O)Oc4c(Cl)cc(CN(C)C)cc4Cl)CC3)cc2)cc1 [Compound 312]	44.7 nM	182.46 °C
C#CCNC(=O)c1ccc(N2CCN(C(=O)Cc3c(Cl)cccc3Cl)CC2)cc1 [Compound 259]	1350 nM	247.07 °C
CCOC(=O)c1ccccc1NC(=O)N1CCN(c2ccc(NC(=O)CCCc3ccccc3)cc2)CC1 [Compound 91]	5500 nM	194.7 °C
O=C(CCCc1ccccc1)Nc1ccc(N2CCN(C(=O)Nc3cc(C(F)(F)F)ccc3Cl)CC2)cc1 [Compound 81]	3310 nM	170.3 °C
CS(=O)(=O)N1CCN(CC(=O)Nc2ccc(N3CCN(C(=O)Nc4c(Cl)cccc4Cl)CC3)cc2)CC1 [Compound 26]	692 nM	232 to 234 °C
O=C(CCCc1ccccc1)Nc1ccc(N2CCN(C(=O)Nc3c(F)c(F)c(F)c(F)c3F)CC2)cc1 [Compound 87]	3310 nM	181.2 °C
CCc1ccccc1NC(=O)N1CCN(c2ccc(NC(=O)CCCc3ccccc3)cc2)CC1 [Compound 93]	240 nM	189 °C
O=C(CNCc1ccc(F)cc1)Nc1ccc(N2CCN(C(=O)Nc3c(Cl)cccc3Cl)CC2)cc1 [Compound 35]	240 nM	169.9 °C
COc1ccccc1CNC(=O)N1CCN(c2ccc(NC(=O)CCCc3ccccc3)cc2)CC1 [Compound 71]	1070 nM	183.1 °C
O=C(CNC1CCCCC1)Nc1ccc(N2CCN(C(=O)Nc3c(Cl)cccc3Cl)CC2)cc1 [Compound 180]	407 nM	185 to 187 °C
CN(C)CCC(=O)Nc1ccc(N2CCN(C(=O)Nc3c(Cl)cccc3Cl)CC2)cc1 [Compound 196]	6760 nM	194 to 196 °C

More lines, now with the values ahead:

IC50 (human DGAT1)	melting point	SMILES
72.4 nM	244 to 246 °C	O=C(CNc1ccccc1)Nc1ccc(N2CCN(C(=O)Nc3c(Cl)cccc3Cl)CC2)cc1 [Compound 21]
42.7 nM	180.99 °C	COc1ccc(CNC(=O)c2ccc(N3CCN(C(=O)Cc4c(Cl)cccc4Cl)CC3)cc2)c(OC)c1 [Compound 230]
6.17 nM	238.7 °C	Cc1cc(C)c(NC(=O)N2CCN(c3ccc(NC(=O)CCCc4ccccc4)cc3)CC2)c(Br)c1 [Compound 11]
33.9 nM	233 to 234 °C	O=C(CCCc1cccnc1)Nc1ccc(N2CCN(C(=O)Nc3c(Cl)cccc3Cl)CC2)cc1 [Compound 194]
8.51 nM	232 to 233 °C	C=CCN(CCC(=O)Nc1ccc(N2CCN(C(=O)Nc3c(Cl)cccc3Cl)CC2)cc1)c1ccccc1Cl [Compound 7]
16.2 nM	218 °C	CC(c1cc(Cl)c(NC(=O)N2CCN(c3ccc(NC(=O)CCCc4ccccc4)cc3)CC2)c(Cl)c1)N1CCCCC1 (centres unmarked) [Compound 56]
46.8 nM	222.04 °C	COc1ccc(CNC(=O)c2ccc(N3CCN(C(=O)Nc4c(Cl)cc(CN5CCCC5)cc4Cl)CC3)cc2)cc1 [Compound 232]
3.72 nM	202 to 203 °C	Cc1ccc(NCC(=O)Nc2ccc(N3CCN(C(=O)Nc4c(Cl)cc(O)cc4Cl)CC3)cc2)c(C)c1 [Compound 185]
63.1 nM	248.28 °C	COc1ccc(CC(=O)Nc2ccc(N3CCN(C(=O)Nc4c(Cl)cc(CC[N+](C)(C)C)cc4Cl)CC3)cc2)cc1 [Compound 317]
2.69 nM	247 to 249 °C	O=C(CNc1ccccc1Cl)Nc1ccc(N2CCN(C(=O)Nc3c(Cl)cccc3Cl)CC2)cc1 [Compound 4]
26.9 nM	181.7 °C	Cc1ccc(NC(=O)N2CCN(c3ccc(NC(=O)CCCc4ccccc4)cc3)CC2)c(C)c1 [Compound 66]
81.3 nM	208.87 °C	COc1ccc(CNC(=O)c2ccc(N3CCN(C(=O)Nc4c(Cl)cc(CN(C(C)C)C(C)C)cc4Cl)CC3)cc2)cc1 [Compound 240]
30.9 nM	218.6 °C	O=C(CCCc1ccccc1)Nc1ccc(N2CCN(C(=O)Nc3c(F)cc(Br)cc3Br)CC2)cc1 [Compound 63]
5.37 nM	114 to 124 °C	O=C(CCCc1ccccc1)Nc1ccc(N2CCN(C(=O)Nc3c(Cl)cccc3Cl)CC2)cc1 [Compound 58]
3.98 nM	187.3 °C	CC(O)c1cc(Cl)c(NC(=O)N2CCN(c3ccc(NC(=O)CCCc4ccccc4)cc3)CC2)c(Cl)c1 (centres unmarked) [Compound 29]
74.1 nM	208 to 210 °C	COc1cc(Cl)c(NC(=O)N2CCN(c3ccc(NC(=O)CCCc4ccccc4)cc3)CC2)c(OC)c1 [Compound 188]
18.2 nM	177.8 °C	C=CCN(CC(=O)Nc1ccc(N2CCN(C(=O)Nc3c(Cl)cccc3Cl)CC2)cc1)Cc1ccc(F)cc1 [Compound 51]
30.9 nM	142.3 °C	O=C(CCCc1ccccc1)Nc1ccc(N2CCN(C(=O)C(O)c3ccccc3Cl)CC2)cc1 (centres unmarked) [Compound 19]
12.6 nM	240.7 °C	Cc1cccc(Cl)c1NC(=O)N1CCN(c2ccc(NC(=O)CCCc3ccccc3)cc2)CC1 [Compound 60]
12.3 nM	223 °C	Cc1cc(C)c(NC(=O)N2CCN(c3ccc(NC(=O)CCCc4ccccc4)cc3)CC2)c(C)c1 [Compound 68]
21.9 nM	243.74 °C	O=C(COC(=O)c1ccccc1)Nc1ccc(N2CCN(C(=O)Nc3c(Cl)cc(CN4CCCC4)cc3Cl)CC2)cc1 [Compound 304]
